Test results: US20130252814A1, “SYNERGISTIC HERBICIDAL COMPOSITION CONTAINING PENOXSULAM AND PRETILACHLOR” (DOW AGROSCIENCES LLC, priority 2011, published 2013)

System: ECHCG - Echinochloa crus-galli (barnyardgrass)
Experiment: Preemergence herbicidal activity of mixtures under field conditions, seeded rice, field trial Taiwan
Type: in vivo
Method: A field trial was conducted in rice in Taiwan using standard herbicide small plot research methodology. Plot size was 1 meter (m) wide by 1 m long. There were 3 replicates per treatment. Soil type was medium texture. Rice was sown by hand direct dry seeding as per normal local cultural practices. The rice crop was grown using normal cultural practices for fertilization, watering, flooding and maintenance to ensure good growth of the crop and the weeds. Treatments were applied by backpack sprayer using compressed air at 30 pounds per square inch (psi) spray pressure. Spray tips were Flat Fan Teejet nozzles, delivering a spray volume of 300 liters per hectare (L/ha). For each treatment, the appropriate formulated product amount to treat the plot area, to achieve the desired application rate, based on unit area of application (hectare), was calculated, measured, and mixed in water prior to applying with the backpack sprayer. Treatments were rated as compared to the untreated control plots. The treated plots and control plots were rated blind at various intervals after application. Ratings were based of Percent (%) Visual weed control, where 0 corresponds to no injury and 100 corresponds to complete kill. Colby's equation was used to determine the herbicidal effects expected from the mixtures (Colby, S. R. Calculation of the synergistic and antagonistic response of herbicide combinations. Weeds 1967, 15, 20-22). The following equation was used to calculate the expected activity of mixtures containing two active ingredients, A and B: Expected=A+B−(A×B/100) A=observed efficacy of active ingredient A at the same concentration as used in the mixture and B=observed efficacy of active ingredient B at the same concentration as used in the mixture.

Row | SMILES | % Control ECHCG Obs (7 days after preemergence application, pretilachlor 270 gr ai/ha) [%] | % Control ECHCG Obs (7 days after preemergence application, pretilachlor 540 gr ai/ha) [%] | % Control ECHCG Obs (28 days after preemergence application, pretilachlor 270 gr ai/ha) [%] | % Control ECHCG Obs (28 days after preemergence application, pretilachlor 540 gr ai/ha) [%] | % Control ECHCG Obs (7 days after preemergence application, penoxsulam 7.5 gr ai/ha) [%] | % Control ECHCG Obs (7 days after preemergence application, penoxsulam 23 gr ai/ha) [%] | % Control ECHCG Obs (28 days after preemergence application, penoxsulam 7.5 gr ai/ha) [%] | % Control ECHCG Obs (28 days after preemergence application, penoxsulam 15 gr ai/ha) [%]
1 | CCCOCCN(C(=O)CCl)c1c(CC)cccc1CC [Pretilachlor, 2-chloro-N-(2,6-diethylphenyl)-N-(2-propoxyethyl)acetamide] | 3 | 3 | 0 | 0 |  |  |  | 
2 | COc1cnc(OC)n2nc(NS(=O)(=O)c3c(OCC(F)F)cccc3C(F)(F)F)nc12 [Penoxsulam, 2-(2,2-difluoroethoxy)-N-(5,8-dimethoxy-[1,2,4]triazolo[1,5-c]pyrimidin-2-yl)-6-(trifluoromethyl)benzenesulfonamide] |  |  |  |  | 47 | 95 | 7 | 80
